Reference: ChEMBL document CHEMBL4732069, “Singly and doubly modified analogues of C20-epi-salinomycin: A new group of antiparasitic agents against Trypanosoma brucei” (Eur J Med Chem, 2021)
The source made the active and inactive calls. The rule behind the calls is not given here.

Assays:
[1] = test system: Trypanosoma brucei brucei; test: Antitrypanosomal activity against Trypanosoma brucei brucei S427 by resazurin dye based fluorescence assay; type: functional
[2] = Cytotoxicity against human HL-60 cells by resazurin dye based fluorescence assay; type: cell-based
[3] = Selectivity index, ratio of GI50 for human HL-60 cells to GI50 for antitrypanosomal activity against Trypanosoma brucei brucei S427; type: toxicity; conditions: read-out: RatioGI50
[4] = test system: Trypanosoma brucei brucei; test: Antitrypanosomal activity against Trypanosoma brucei brucei assessed as cell swelling; type: functional, organism-based

SMILES | GI50 [1] | GI50 [2] | selectivity ratio [3] | Activity [4]
C#CCNC(=O)[C@H](CC)[C@H]1CC[C@H](C)[C@H]([C@@H](C)[C@H](O)[C@H](C)C(=O)[C@H](CC)[C@H]2O[C@]3(C=C[C@H](OC(C)=O)[C@]4(CC[C@@](C)([C@H]5CC[C@](O)(CC)[C@H](C)O5)O4)O3)[C@H](C)C[C@@H]2C)O1 | 20.9 µM | 39.8 µM | 2 | 
CC[C@@H](C(=O)[C@@H](C)[C@@H](O)[C@H](C)[C@@H]1O[C@@H]([C@@H](CC)C(=O)ONC(=O)c2ccccc2O)CC[C@@H]1C)[C@H]1O[C@]2(C=C[C@H](OC(C)=O)[C@]3(CC[C@@](C)([C@H]4CC[C@](O)(CC)[C@H](C)O4)O3)O2)[C@H](C)C[C@@H]1C | 0.59 µM | 203 µM | 353 | 
CCCCCCCCCC(=O)O[C@H]1C=C[C@]2(O[C@H]([C@@H](CC)C(=O)[C@@H](C)[C@@H](O)[C@H](C)[C@@H]3O[C@@H]([C@@H](CC)C(=O)O)CC[C@@H]3C)[C@@H](C)C[C@H]2C)O[C@@]12CC[C@@](C)([C@H]1CC[C@](O)(CC)[C@H](C)O1)O2 | 2.48 µM | 5.97 µM | 165 | Active
CC[C@@H](C(=O)[C@@H](C)[C@@H](O)[C@H](C)[C@@H]1O[C@@H]([C@@H](CC)C(=O)O)CC[C@@H]1C)[C@H]1O[C@]2(C=C[C@H](OC(C)=O)[C@]3(CC[C@@](C)([C@H]4CC[C@](O)(CC)[C@H](C)O4)O3)O2)[C@H](C)C[C@@H]1C | 0.043 µM | 52.5 µM | 21.2 | 
CC[C@@H](C(=O)[C@@H](C)[C@@H](O)[C@H](C)[C@@H]1O[C@@H]([C@@H](CC)C(=O)O)CC[C@@H]1C)[C@H]1O[C@]2(C=C[C@H](O)[C@]3(CC[C@@](C)([C@H]4CC[C@](O)(CC)[C@H](C)O4)O3)O2)[C@H](C)C[C@@H]1C | 8.49 µM | 393 µM | 4.6 | inactive
CC[C@@H](C(=O)[C@@H](C)[C@@H](O)[C@H](C)[C@@H]1O[C@@H]([C@@H](CC)C(=O)O)CC[C@@H]1C)[C@H]1O[C@]2(C=C[C@@H](O)[C@]3(CC[C@@](C)([C@H]4CC[C@](O)(CC)[C@H](C)O4)O3)O2)[C@H](C)C[C@@H]1C [SALINOMYCIN] | 0.3 µM | 50.5 µM | 168 | Active
CCOC(=O)O[C@H]1C=C[C@]2(O[C@H]([C@@H](CC)C(=O)[C@@H](C)[C@@H](O)[C@H](C)[C@@H]3O[C@@H]([C@@H](CC)C(=O)O)CC[C@@H]3C)[C@@H](C)C[C@H]2C)O[C@@]12CC[C@@](C)([C@H]1CC[C@](O)(CC)[C@H](C)O1)O2 | 0.2 µM | 12.6 µM | 293 | Active
Cc1ccc(C(=O)Nc2ccc(S(=O)(=O)O)c3cc(S(=O)(=O)O)cc(S(=O)(=O)O)c23)cc1NC(=O)c1cccc(NC(=O)Nc2cccc(C(=O)Nc3cc(C(=O)Nc4ccc(S(=O)(=O)O)c5cc(S(=O)(=O)O)cc(S(=O)(=O)O)c45)ccc3C)c2)c1 [SURAMIN] | 0.058 µM | > 100 µM | > 1720 | 
CC[C@@H](C(=O)[C@@H](C)[C@@H](O)[C@H](C)[C@@H]1O[C@@H]([C@@H](CC)C(=O)O)CC[C@@H]1C)[C@H]1O[C@]2(C=C[C@H](OC(=O)Nc3ccccc3)[C@]3(CC[C@@](C)([C@H]4CC[C@](O)(CC)[C@H](C)O4)O3)O2)[C@H](C)C[C@@H]1C | 3.15 µM | 57.2 µM | 18.2 | 
CCCCCCCCNC(=O)O[C@H]1C=C[C@]2(O[C@H]([C@@H](CC)C(=O)[C@@H](C)[C@@H](O)[C@H](C)[C@@H]3O[C@@H]([C@@H](CC)C(=O)O)CC[C@@H]3C)[C@@H](C)C[C@H]2C)O[C@@]12CC[C@@](C)([C@H]1CC[C@](O)(CC)[C@H](C)O1)O2 | 0.2 µM | 24.6 µM | 123 | 
CC[C@@H](C(=O)[C@@H](C)[C@@H](O)[C@H](C)[C@@H]1O[C@@H]([C@@H](CC)C(=O)O)CC[C@@H]1C)[C@H]1O[C@]2(C=C[C@H](OC(=O)Oc3ccccc3)[C@]3(CC[C@@](C)([C@H]4CC[C@](O)(CC)[C@H](C)O4)O3)O2)[C@H](C)C[C@@H]1C | 0.22 µM | 23.4 µM | 106 | 
C#CCOC(=O)[C@H](CC)[C@H]1CC[C@H](C)[C@H]([C@@H](C)[C@H](O)[C@H](C)C(=O)[C@H](CC)[C@H]2O[C@]3(C=C[C@H](OC(=O)OCC)[C@]4(CC[C@@](C)([C@H]5CC[C@](O)(CC)[C@H](C)O5)O4)O3)[C@H](C)C[C@@H]2C)O1 | 15 µM | > 100 µM | > 312 | 
CCNC(=O)N(CC)C(=O)O[C@H]1C=C[C@]2(O[C@H]([C@@H](CC)C(=O)[C@@H](C)[C@@H](O)[C@H](C)[C@@H]3O[C@@H]([C@@H](CC)C(=O)O)CC[C@@H]3C)[C@@H](C)C[C@H]2C)O[C@@]12CC[C@@](C)([C@H]1CC[C@](O)(CC)[C@H](C)O1)O2 | 0.027 µM | 9.54 µM | 353 | Active
CC[C@@H](C(=O)[C@@H](C)[C@@H](O)[C@H](C)[C@@H]1O[C@@H]([C@@H](CC)C(=O)O)CC[C@@H]1C)[C@H]1O[C@]2(C=C[C@H](OC(=O)C34CC5CC(CC(C5)C3)C4)[C@]3(CC[C@@](C)([C@H]4CC[C@](O)(CC)[C@H](C)O4)O3)O2)[C@H](C)C[C@@H]1C | 0.24 µM | 18.7 µM | 55 | 
C#CCNC(=O)[C@H](CC)[C@H]1CC[C@H](C)[C@H]([C@@H](C)[C@H](O)[C@H](C)C(=O)[C@H](CC)[C@H]2O[C@]3(C=C[C@H](O)[C@]4(CC[C@@](C)([C@H]5CC[C@](O)(CC)[C@H](C)O5)O4)O3)[C@H](C)C[C@@H]2C)O1 | 2.97 µM | 44.8 µM | 15.1 | 
C#CCNC(=O)[C@H](CC)[C@H]1CC[C@H](C)[C@H]([C@@H](C)[C@H](O)[C@H](C)C(=O)[C@H](CC)[C@H]2O[C@]3(C=C[C@H](OC(=O)OCC)[C@]4(CC[C@@](C)([C@H]5CC[C@](O)(CC)[C@H](C)O5)O4)O3)[C@H](C)C[C@@H]2C)O1 | 13.8 µM | 61.8 µM | 106 | 
CC[C@@H](C(=O)[C@@H](C)[C@@H](O)[C@H](C)[C@@H]1O[C@@H]([C@@H](CC)C(=O)O)CC[C@@H]1C)[C@H]1O[C@]2(C=C[C@H](OC(=O)c3ccccc3)[C@]3(CC[C@@](C)([C@H]4CC[C@](O)(CC)[C@H](C)O4)O3)O2)[C@H](C)C[C@@H]1C | 0.34 µM | 13.5 µM | 67.5 | 
CC[C@@H](C(=O)[C@@H](C)[C@@H](O)[C@H](C)[C@@H]1O[C@@H]([C@@H](CC)C(=O)O)CC[C@@H]1C)[C@H]1O[C@]2(C=C[C@H](OC(=O)NC(C)(C)C)[C@]3(CC[C@@](C)([C@H]4CC[C@](O)(CC)[C@H](C)O4)O3)O2)[C@H](C)C[C@@H]1C | 0.32 µM | > 100 µM | > 312 | 
C#CCOC(=O)[C@H](CC)[C@H]1CC[C@H](C)[C@H]([C@@H](C)[C@H](O)[C@H](C)C(=O)[C@H](CC)[C@H]2O[C@]3(C=C[C@H](O)[C@]4(CC[C@@](C)([C@H]5CC[C@](O)(CC)[C@H](C)O5)O4)O3)[C@H](C)C[C@@H]2C)O1 | 26.9 µM | > 100 µM | > 3.7 | 
CC[C@@H](C(=O)[C@@H](C)[C@@H](O)[C@H](C)[C@@H]1O[C@@H]([C@@H](CC)C(=O)O)CC[C@@H]1C)[C@H]1O[C@]2(C=C[C@H](OC(=O)C(C)C)[C@]3(CC[C@@](C)([C@H]4CC[C@](O)(CC)[C@H](C)O4)O3)O2)[C@H](C)C[C@@H]1C | 0.036 µM | 21.6 µM | 90 | 
CC[C@@H](C(=O)[C@@H](C)[C@@H](O)[C@H](C)[C@@H]1O[C@@H]([C@@H](CC)C(=O)ONC(=O)c2ccccc2)CC[C@@H]1C)[C@H]1O[C@]2(C=C[C@H](OC(C)=O)[C@]3(CC[C@@](C)([C@H]4CC[C@](O)(CC)[C@H](C)O4)O3)O2)[C@H](C)C[C@@H]1C | 0.47 µM | 19.1 µM | 18.2 | 
CC[C@@H](C(=O)[C@@H](C)[C@@H](O)[C@H](C)[C@@H]1O[C@@H]([C@@H](CC)C(=O)O)CC[C@@H]1C)[C@H]1O[C@]2(C=C[C@H](OC(=O)OCC(C)(C)C)[C@]3(CC[C@@](C)([C@H]4CC[C@](O)(CC)[C@H](C)O4)O3)O2)[C@H](C)C[C@@H]1C | 21.6 µM | 42.4 µM | 2 | 
CC[C@@H](C(=O)[C@@H](C)[C@@H](O)[C@H](C)[C@@H]1O[C@@H]([C@@H](CC)C(=O)ONC(=O)c2ccccc2)CC[C@@H]1C)[C@H]1O[C@]2(C=C[C@H](O)[C@]3(CC[C@@](C)([C@H]4CC[C@](O)(CC)[C@H](C)O4)O3)O2)[C@H](C)C[C@@H]1C | 0.32 µM | 9.54 µM | 29.8 | 
C#CCOC(=O)[C@H](CC)[C@H]1CC[C@H](C)[C@H]([C@@H](C)[C@H](O)[C@H](C)C(=O)[C@H](CC)[C@H]2O[C@]3(C=C[C@H](OC(C)=O)[C@]4(CC[C@@](C)([C@H]5CC[C@](O)(CC)[C@H](C)O5)O4)O3)[C@H](C)C[C@@H]2C)O1 | 22.4 µM | > 100 µM | 123 | 
CC[C@@H](C(=O)[C@@H](C)[C@@H](O)[C@H](C)[C@@H]1O[C@@H]([C@@H](CC)C(=O)ONC(=O)c2ccccc2O)CC[C@@H]1C)[C@H]1O[C@]2(C=C[C@H](O)[C@]3(CC[C@@](C)([C@H]4CC[C@](O)(CC)[C@H](C)O4)O3)O2)[C@H](C)C[C@@H]1C | 2.81 µM | 33.2 µM | 11.8 | 
